Assay results published in article PMC3342997 (HIV Medicine, 2011).
In brackets after ≈: the same amount, converted by molar mass. Several values for one entry are separate records, joined by “and”; a condition that tells them apart may be missing. Equal values may be shown once. Read-outs that look alike come from different tables or passages of the source.

Legend:
[1] = system: wild-type HIV-1; details: mean in vitro, wild-type HIV-1 viral replication; ref not given; cited from earlier work
[2] = system: HIV-1; details: combination antiretroviral regimen
[3] = clinical; details: female, human, 200 mg; for Vd/F / half-life: in vivo; for AUC: 200 mg once daily, steady state, AUC0-24, noncompartmental
[4] = female, human, in vivo
[5] = clinical; details: female, human, in vivo, 200 mg
[6] = cited from earlier work
[7] = for Women with detectable emtricitabine concentrations at pre-dose sampling: limit of detection 0.0118 mg/L
[8] = in vivo; cited from earlier work
[9] = postpartum (n = 22), geometric least-squares mean (90% CI)
[10] = third trimester (n = 26), geometric least-squares mean (90% CI)

## Nc1nc(=O)n([C@@H]2CS[C@H](CO)O2)cc1F [emtricitabine]
[1]
  IC50 (drug concentration that suppresses viral replication by half): 0.004 µg/mL (≈ 0.0162 µM)
  IC90: 0.051 µg/mL (≈ 0.206 µM)
[2]; postpartum
  Women with viral load <400 HIV-1 RNA copies/mL: 15 of 19 and 15
[2]; third trimester
  Women with viral load <400 HIV-1 RNA copies/mL: 24 of 26
[3]; [9]
  Vd/F: 301 L
[3]; [10]
  Vd/F: 334 L
[3]; t1/2, postpartum (n = 22), geometric least-squares mean (90% CI)
  half-life: 10.1 h
[3]; t1/2, third trimester (n = 26), geometric least-squares mean (90% CI)
  half-life: 9.3 h
[3]; plasma, oral
  Cmax: 1400 ng/mL
  tmax: 2 h
[3]; plasma, oral, postpartum (n = 22), geometric least-squares mean (90% CI)
  AUC: 9700 ng·h/mL
[3]; plasma, oral, third trimester (n = 26), geometric least-squares mean (90% CI)
  AUC: 8000 ng·h/mL
[3]; plasma, oral, C24 (24 hour post dose concentration), postpartum (n = 22), geometric least-squares mean (90% CI)
  concentration at 24 h: 85 ng/mL
[3]; plasma, oral, C24 (24 hour post dose concentration), third trimester (n = 26), geometric least-squares mean (90% CI)
  concentration at 24 h: 58 ng/mL
[3]; plasma, oral, Lowest C24, postpartum
  concentration at 24 h: 70 ng/mL
[4]
  Maternal plasma concentration at delivery: 0.15 mg/L
human, in vivo
  Subjects with grade 3 adverse events of elevated bilirubin: three subjects
  Tolerability: well tolerated
Lachrymal duct stenosis, grade 3 vesicoureteral reflux, deemed not related to the antiretroviral regimen
  Congenital anomalies in infants: two infants
[5]
  Kp: 1.2
[6]; in vivo, 200 mg
  AUC: 10000 ng·h/mL
[6]; in vivo
  Cmax: 1800 ± 700 ng/mL
  Minimum adult concentration: 0.077 mg/L
  Protein binding: low protein binding
[6]; nonpregnant adults, 200 mg once daily
  CL/F: 18.1 L/h
[7]; antepartum
  Women with detectable emtricitabine concentrations at pre-dose sampling: All 26 women
[7]; during pregnancy, 15 of 26 subjects, 80% CI 45–70%
  Subjects achieving target AUC ≥7.0 mg h/L: 58%
[7]; [9]
  C24 (24 hour post dose concentration): 0.085 mg/L
  Cmax: 1.4 (1.3–1.7) mg/L
[7]; postpartum (n = 22), geometric least-squares mean (90% CI), listed as Emtricitabine
  C24 (24 hour post dose concentration): 0.085 (0.07–0.1) mg/L
[7]; postpartum (n = 22), median (range)
  tmax: 2.0 (min–max: 1–6) hours
[7]; postpartum, 21 of 22 subjects, 80% CI 89–100%
  Subjects achieving target AUC ≥7.0 mg h/L: 95%
[7]; postpartum
  Women with detectable emtricitabine concentrations at pre-dose sampling: 18 of 22
[7]; pregnancy compared with postpartum
  Magnitude of the AUC decrease during pregnancy: less than 20%
[7]; [10]
  C24 (24 hour post dose concentration): 0.058 mg/L

## Cc1ccnc2c1NC(=O)c1cccnc1N2C1CC1 [nevirapine]
[8]
  Reduction of exposure during pregnancy: 10–20%
